From patent US8309552B2, “Immunomodulating heterocyclic compounds” (Medigene AG, priority 2003, dated 2012)

These molecules were tested against T1, CD80-CD28 interaction (Homo sapiens, UniProt P33681) (assay: Homogenous Time Resolved Fluorescence (HTRF) assay, cell free). Details: cell free HTRF assay; concentration series 100 μM-1.7 nM; 4 hours at room temperature; read-out: Activity (EC50 in the HTRF assay).
T1 sequence (P33681 35-242 limits assumed): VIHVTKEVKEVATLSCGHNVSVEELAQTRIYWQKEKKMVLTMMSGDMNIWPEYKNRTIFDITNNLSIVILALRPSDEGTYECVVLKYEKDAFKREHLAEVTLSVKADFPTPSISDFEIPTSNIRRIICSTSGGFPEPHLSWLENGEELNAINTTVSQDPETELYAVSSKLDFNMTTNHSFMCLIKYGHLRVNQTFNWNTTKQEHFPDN
Format: binding
Method in brief: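 Europium and APC labels were linked through antibodies to CD28 and CD80 fusion proteins. Compounds were tested at 100 μM-1.7 nM for 4 h at room temperature in 50 mM Tris-HCl, 150 mM NaCl pH7.8, 0.1% BSA. Emission read at 665 and 615 nm (excitation 340 nm); non-specific signal measured with C215 Fab in place of CD80; EC50 reported in bands.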

SMILES	EC50 [µM]
O=C(CN1CCC(NC(=O)c2ccc(-n3[nH]c4c(nnc5c(F)cccc54)c3=O)cc2)CC1)c1ccccc1 [Example 334]	< 1
CNCCCNC(=O)c1ccc(-n2[nH]c3c(nnc4c(F)cccc43)c2=O)cc1 [Example 355]	< 1
CN1CCCC1CCNC(=O)c1ccc(-n2[nH]c3c(nnc4ccc(F)cc43)c2=O)cc1 (centres unmarked) [Example 327]	< 1
CCCCC(C)NC(=O)c1ccc(-n2[nH]c3c(nnc4ccccc43)c2=O)cc1 (centres unmarked) [Example 322]	< 1
O=C(NCCc1cccc(Cl)c1)c1ccc(-n2[nH]c3c(nnc4c(F)cccc43)c2=O)cc1 [Example 364]	1 to 10
O=C(NCCCCN1CCCC1)c1ccc(-n2[nH]c3c(nnc4cccc(F)c43)c2=O)cc1 [Example 388]	< 1
CCCCCCCNC(=O)c1ccc(-n2[nH]c3c(nnc4ccccc43)c2=O)cc1 [Example 245]	1 to 10
CCN(CC)CCCNC(=O)c1ccc(-n2[nH]c3c(nnc4c(F)cccc43)c2=O)cc1 [Example 346]	< 1
CCOC(=O)C1CCCC1NC(=O)c1ccc(-n2[nH]c3c(nnc4ccccc43)c2=O)cc1 (centres unmarked) [Example 275]	1 to 10
CN1C(C)(C)CC(NC(=O)c2ccc(-n3[nH]c4c(nnc5cccc(F)c54)c3=O)cc2)CC1(C)C [Example 390]	< 1
CS(=O)(=O)c1ccc(CN2CCC(NC(=O)c3ccc(-n4[nH]c5c(nnc6c(F)cccc65)c4=O)cc3)CC2)cc1 [Example 380]	< 1
NC1CCC(NC(=O)c2ccc(-n3[nH]c4c(nnc5cccc(F)c54)c3=O)cc2)CC1 (centres unmarked) [Example 405]	< 1
O=C(NCCF)c1ccc(-n2[nH]c3c(nnc4c(F)cccc43)c2=O)cc1 [Example 426]	< 1
O=C(NCc1cccc(C(F)(F)F)c1)c1ccc(-n2[nH]c3c(nnc4ccccc43)c2=O)cc1 [Example 248]	> 10
CC(c1ccccc1)N1CCC(NC(=O)c2ccc(-n3[nH]c4c(nnc5c(F)cccc54)c3=O)cc2)CC1 (centres unmarked) [Example 337]	< 1
O=C(NCc1cccc(F)c1)c1ccc(-n2[nH]c3c(nnc4ccccc43)c2=O)cc1 [Example 250]	< 1
O=C(NCCCCN1CCOCC1)c1ccc(-n2[nH]c3c(nnc4c(F)cccc43)c2=O)cc1 [Example 434]	< 1
CCN(C)CCCCNC(=O)c1ccc(-n2[nH]c3c(nnc4c(F)cccc43)c2=O)cc1 [Example 432]	< 1
CNCCCNC(=O)c1ccc(-n2[nH]c3c(nnc4cccc(F)c43)c2=O)cc1 [Example 396]	< 1
CC12CCC(C1)C(C)(C)C2NC(=O)c1ccc(-n2[nH]c3c(nnc4ccccc43)c2=O)cc1 (centres unmarked) [Example 318]	< 1
C=C(C)CNC(=O)c1ccc(-n2[nH]c3c(nnc4c(F)cccc43)c2=O)cc1 [Example 340]	< 1
CCC(COCc1ccccc1)NC(=O)c1ccc(-n2[nH]c3c(nnc4ccccc43)c2=O)cc1 (centres unmarked) [Example 276]	1 to 10
CCNCCNC(=O)c1ccc(-n2[nH]c3c(nnc4c(F)cccc43)c2=O)cc1 [Example 357]	< 1
O=C(NCCCNC1CCCCC1)c1ccc(-n2[nH]c3c(nnc4c(F)cc(F)cc43)c2=O)cc1 [Example 415]	< 1
O=C(NC1CCC1)c1ccc(-n2[nH]c3c(nnc4c(F)cccc43)c2=O)cc1 [Example 424]	< 1
CN(C)CC(C)(C)CNC(=O)c1ccc(-n2[nH]c3c(nnc4cccc(F)c43)c2=O)cc1 [Example 404]	< 1

Further lines, results first:

EC50 [µM]	SMILES
< 1	O=C(NCCCCN1CCCCC1)c1ccc(-n2[nH]c3c(nnc4ccccc43)c2=O)cc1 [Example 339]
> 10	CN(CCNC(=O)Nc1ccc(-n2[nH]c3c(nnc4ccccc43)c2=O)cc1)C(=O)OC(C)(C)C [Example 265]
< 1	O=C(NCCCN1CCCC1)Nc1ccc(-n2[nH]c3c(nnc4ccccc43)c2=O)cc1 [Example 229]
< 1	O=C(NCC1CCNCC1)Nc1ccc(-n2[nH]c3c(nnc4ccccc43)c2=O)cc1 [Example 290]
> 10	O=C(NCc1ccc2c(c1)OCO2)Nc1ccc(-n2[nH]c3c(nnc4ccccc43)c2=O)cc1 [Example 286]
< 1	O=C(NCCCn1ccnc1)Nc1ccc(-n2[nH]c3c(nnc4ccccc43)c2=O)cc1 [Example 298]
1 to 10	O=C(NCC1CCCCC1)c1ccc(-n2[nH]c3c(nnc4ccccc43)c2=O)cc1 [Example 244]
< 1	CCN1CCCC1CNC(=O)Nc1ccc(-n2[nH]c3c(nnc4ccccc43)c2=O)cc1 (centres unmarked) [Example 310]
< 1	O=C(NCCN1CCNCC1)Nc1ccc(-n2[nH]c3c(nnc4ccccc43)c2=O)cc1 [Example 300]
< 1	O=C(NCCN1CCCC1)c1ccc(-n2[nH]c3c(nnc4ccccc43)c2=O)cc1 [Example 259]
1 to 10	CCCCNC(=O)c1ccc(-n2[nH]c3c(nnc4ccccc43)c2=O)cc1 [Example 241]
< 1	O=C(NCCN1CCNC1=O)Nc1ccc(-n2[nH]c3c(nnc4ccccc43)c2=O)cc1 [Example 287]

Same assay, conditions: cell-free HTRF, compound concentration series 100 μM-1.7 nM, 4 hours at room temperature; read-out: Activity (EC50 in the HTRF assay)

SMILES	EC50 [µM]
CC(C)C(C)NC(=O)c1ccc(-n2[nH]c3c(nnc4ccccc43)c2=O)cc1 (centres unmarked) [Example 33]	1 to 10
CCCCN(CCCC)CCCNC(=O)c1ccc(-n2[nH]c3c(nnc4ccccc43)c2=O)cc1 [Example 58]	< 1
COC(=O)CNC(=O)c1ccc(-n2[nH]c3c(nnc4ccccc43)c2=O)cc1 [Example 115]	1 to 10
O=C(NCCc1ccccn1)c1ccc(-n2[nH]c3c(nnc4ccccc43)c2=O)cc1 [Example 76]	1 to 10
CCCCOCCCNC(=O)c1ccc(-n2[nH]c3c(nnc4ccccc43)c2=O)cc1 [Example 67]	< 1
CC[C@H](C)NC(=O)c1ccc(-n2[nH]c3c(nnc4ccccc43)c2=O)cc1 [Example 71]	< 1

The remaining lines, values ahead:

EC50 [µM]	SMILES
1 to 10	COC(=O)CNC(=O)Nc1ccc(-n2[nH]c3c(nnc4ccccc43)c2=O)cc1 [Example 154]
> 10	CC(C)CC(C)NC(=O)Nc1ccc(-n2[nH]c3c(nnc4ccccc43)c2=O)cc1 (centres unmarked) [Example 124]
> 10	O=C(NCc1ccc(F)cc1)Nc1ccc(-n2[nH]c3c(nnc4ccccc43)c2=O)cc1 [Example 126]
< 1	COCC(C)NC(=O)Nc1ccc(-n2[nH]c3c(nnc4ccccc43)c2=O)cc1 (centres unmarked) [Example 210]
> 10	CCCCCOC(=O)CNC(=O)Nc1ccc(-n2[nH]c3c(nnc4ccccc43)c2=O)cc1 [Example 216]
1 to 10	O=C(NCCc1ccncc1)Nc1ccc(-n2[nH]c3c(nnc4ccccc43)c2=O)cc1 [Example 184]
> 10	CC1C(NC(=O)Nc2ccc(-n3[nH]c4c(nnc5ccccc54)c3=O)cc2)CC2CC1C2(C)C (centres unmarked) [Example 202]
1 to 10	O=C(NCCc1cccnc1)Nc1ccc(-n2[nH]c3c(nnc4ccccc43)c2=O)cc1 [Example 217]
> 10	O=C(Nc1ccc(-n2[nH]c3c(nnc4ccccc43)c2=O)cc1)NC1CC2CCC1C2 (centres unmarked) [Example 199]
1 to 10	COCCCNC(=O)Nc1ccc(-n2[nH]c3c(nnc4ccccc43)c2=O)cc1 [Example 133]
< 1	O=C(NCCN1CCOCC1)c1ccc(-n2[nH]c3c(nnc4ccccc43)c2=O)cc1 [Example 12]
< 1	CC1CCCCN1CCCNC(=O)Nc1ccc(-n2[nH]c3c(nnc4ccccc43)c2=O)cc1 (centres unmarked) [Example 186]
< 1	O=C(NCCNCc1ccccc1)Nc1ccc(-n2[nH]c3c(nnc4ccccc43)c2=O)cc1 [Example 193]
> 10	CCOC(=O)C1CCCC1NC(=O)Nc1ccc(-n2[nH]c3c(nnc4ccccc43)c2=O)cc1 (centres unmarked) [Example 164]
1 to 10	O=C(NCCN1CCCCC1)Nc1ccc(-n2[nH]c3c(nnc4ccccc43)c2=O)cc1 [Example 125]
< 1	CC(C)(C)OC(=O)N1CCN(CCNC(=O)c2ccc(-n3[nH]c4c(nnc5ccccc54)c3=O)cc2)CC1 [Example 101]
1 to 10	O=C(NC1CCCCC1)c1ccc(-n2[nH]c3c(nnc4ccccc43)c2=O)cc1 [Example 57]
> 10	O=C(NCCSCc1ccccc1)Nc1ccc(-n2[nH]c3c(nnc4ccccc43)c2=O)cc1 [Example 200]
< 1	NCCCCNC(=O)c1ccc(-n2[nH]c3c(nnc4ccccc43)c2=O)cc1 [Example 54]
> 10	CCOC(=O)CCCNC(=O)Nc1ccc(-n2[nH]c3c(nnc4ccccc43)c2=O)cc1 [Example 192]

Same assay, conditions: cell-free HTRF, concentration series 100 μM-1.7 nM, 4 hours at room temperature; read-out: Activity (EC50 in the HTRF assay)

EC50 [µM]	SMILES
< 1	NCCCNC(=O)c1ccc(-n2[nH]c3c(nnc4c(F)cccc43)c2=O)cc1 [Example 445]
< 1	CC(C)(C)NCCCCNC(=O)c1ccc(-n2[nH]c3c(nnc4c(F)cccc43)c2=O)cc1 [Example 479]
< 1	CC(C)(C)CNC(=O)c1ccc(-n2[nH]c3c(nnc4c(F)cccc43)c2=O)cc1 [Example 455]
< 1	CCNC(=O)c1ccc(-n2[nH]c3c(nnc4c(F)cccc43)c2=O)cc1 [Example 450]
< 1	O=C(NCCCCN1CCCCCC1)c1ccc(-n2[nH]c3c(nnc4c(F)cccc43)c2=O)cc1 [Example 462]
< 1	O=C(NC1CCN(CCCCF)CC1)c1ccc(-n2[nH]c3c(nnc4c(F)cccc43)c2=O)cc1 [Example 471]

Same assay, conditions: inhibition of the CD80-CD28 interaction, 4 hours at room temperature; read-out: EC50 activity in the HTRF assay

EC50 [µM]	SMILES
> 10	O=C(O)c1ccc(-n2[nH]c3c(nnc4c(F)cccc43)c2=O)cc1 [Example 5, 4-(6-fluoro-3-oxo-1,3-dihydro-2H-pyrazolo[4,3-c]cinnolin-2-yl)benzoic acid]
